Measurements reported in patent publication EP1106702A1, “High-throughput screening of compounds using electrospray ionization mass spectrometry (ESI-MS)” (AGOURON PHARMACEUTICALS, INC., priority 1999, dated 2001).

Experiments:
[1] = tested on: 6:7 duplex; experiment: ESI-MS monitoring of non-covalent small molecule:oligonucleotide complexes with DNA duplex; format: binding; conditions: for ammonium acetate concentration tolerated with binding/complex stable: ammonium acetate varied from 10 mM to 250 mM; for relative binding affinity to 6:7 duplex: 10 mM ammonium acetate
Procedure: Regarding buffer concentration, the concentrations of ammonium acetate were varied to determine the effects of ionic strength on ligand binding. […] Of the intercalators, proflavin tolerated over 100 mM ammonium acetate with minimal shifting in binding. However, ethidium bromide and methyl green had almost 70% reduction in binding to DNA at only 33 mM ammonium acetate. The reduction in binding of ethidium bromide and methyl green at high salt concentrations is evidence of the electrostatic nature of the first step in binding in the intercalation of these compounds. Proflavin, which is […] at the test pH, should be less affected by an increase in competing counterions.
The general protocol for preparing the samples utilized in the present invention is as follows. Complementary single-stranded oligonucleotides are desalted, preferably via ammonium acetate precipitation. This DNA desalting procedure involves the following steps. First, the oligonucleotide is dissolved in approximately 100 µL of water. Next, about 500 µL of 10 M ammonium acetate is added. The solution is mixed and allowed to rest for about 5 minutes. From about 600 to about […] of cold ethanol (EtOH) is added and the solution is set in dry ice for about 25 minutes. The solution is then centrifuged for about 20 minutes. The supernatant is removed and saved and the preceding steps are repeated once. Subsequently, 1 ml of a 90:10 solution of EtOH and water are added and the solution is centrifuged for 5 minutes. This step is then repeated twice. The solution is then dried and rehydrated. Finally, OD readings are taken at 260 nanometers to ensure a 1:500 dilution.
(§1) The complementary oligonucleotide strands and corresponding oligonucleotide duplex are not critical to the invention. The duplex may comprise a DNA:DNA duplex, an RNA:RNA duplex or a DNA:RNA duplex. The DNA strands utilized herein are described in detail below. Once desalted, the complementary oligonucleotide strands are added in equimolar mixture in 50 mM ammonium acetate to make a […] duplex stock solution. The duplex stock solution is placed in a 60° C water bath for 10 minutes and then slowly cooled to room temperature. Test solutions are made by adding test compound (dissolved in methanol (MeOH)) to stock solution in a 2:1 water:isopropyl alcohol. Final concentrations of test compound and duplex are preferably 10 µM each. For example, 20 µL of the stock duplex solution is added to 80 µL of a 2:1 solution of water and IPA for a final volume of 100 µL and a final concentration of 10 µM duplex. The test compound is then added to the solution for a final concentration of 10 µM as well. One may subsequently dilute the test solution to test a range of test compound concentrations, from as low as 0.3 µM up to 10 µM.
Once the appropriate samples and solutions are prepared, one may proceed with the ESI-MS procedure. The general protocol for manual analysis is as follows. First, a 50 µL sample of test solution (comprised of about 30 picomoles of test compound) is drawn into a 100 µL syringe and infused into an LCQ Decca ion trap mass spectrometer using ESI-MS source. The sample is directly infused at a rate of about 1.5 µL/min over a period of approximately 2 minutes. The spectra is then analyzed for the presence of bound test ligand. If the test ligand does bind, the sample is re-run at lower concentrations, from about 0.3 µM up to 1.0 µM. In order to ensure statistical accuracy, data are preferably summed, saved, and analyzed over a large numbers of scans, preferably 30 to 50 scans, more preferably 40 scans.
The oligonucleotides utilized in the examples herein were known to interact with a particular target(s) of interest. They were provided according to our specifications from TriLink (La Jolla, CA). […] When the duplex solution was analyzed by ESI-MS, it was possible to see at least three charge stages of the duplex as well as some charge states of the two single strands. […]

[2] = tested on: ss DNA; experiment: ESI-MS monitoring of ligand binding to the single strands in the duplex mixture; conditions: 10 µM duplex 6:7 mixture, increasing ligand concentration
Procedure: as §1, with “For example, 20 µL of the stock duplex solution is added to 80 µL of a 2:1 solution of water and IPA for a final volume of 100 µL and a final concentration of 10 µM duplex. The test compound is then added to the solution for a final concentration of 10 µM as well. One may subsequently dilute the test solution to test a range of test compound concentrations, from as low as 0.3 µM up to 10 µM.” left out
Once the appropriate samples and solutions are prepared, one may proceed with the ESI-MS procedure. […] The spectra is then analyzed for the presence of bound test ligand. […] In order to ensure statistical accuracy, data are preferably summed, saved, and analyzed over a large numbers of scans, preferably 30 to 50 scans, more preferably 40 scans.
The oligonucleotides utilized in the examples herein were known to interact with a particular target(s) of interest. […] When the duplex solution was analyzed by ESI-MS, it was possible to see at least three charge stages of the duplex as well as some charge states of the two single strands. […]

[3] = target: E.coli DNA helicase II (Escherichia coli, UniProt P03018); conditions: intercalation into double-stranded DNA substrate; cited from earlier work
[4] = tested on: 6:7 duplex; experiment: ESI-MS monitoring of non-covalent small molecule:oligonucleotide complexes with DNA duplex; format: binding; conditions: 10 µM duplex and 10 µM proflavin; FT-ICR mass spectrometer
[5] = 33 mM ammonium acetate, 10 µM 6:7 duplex and 10 µM sample
[6] = 10 µM 6:7 duplex and 10 µM sample

Sequence of E.coli DNA helicase II (P03018 whole entry): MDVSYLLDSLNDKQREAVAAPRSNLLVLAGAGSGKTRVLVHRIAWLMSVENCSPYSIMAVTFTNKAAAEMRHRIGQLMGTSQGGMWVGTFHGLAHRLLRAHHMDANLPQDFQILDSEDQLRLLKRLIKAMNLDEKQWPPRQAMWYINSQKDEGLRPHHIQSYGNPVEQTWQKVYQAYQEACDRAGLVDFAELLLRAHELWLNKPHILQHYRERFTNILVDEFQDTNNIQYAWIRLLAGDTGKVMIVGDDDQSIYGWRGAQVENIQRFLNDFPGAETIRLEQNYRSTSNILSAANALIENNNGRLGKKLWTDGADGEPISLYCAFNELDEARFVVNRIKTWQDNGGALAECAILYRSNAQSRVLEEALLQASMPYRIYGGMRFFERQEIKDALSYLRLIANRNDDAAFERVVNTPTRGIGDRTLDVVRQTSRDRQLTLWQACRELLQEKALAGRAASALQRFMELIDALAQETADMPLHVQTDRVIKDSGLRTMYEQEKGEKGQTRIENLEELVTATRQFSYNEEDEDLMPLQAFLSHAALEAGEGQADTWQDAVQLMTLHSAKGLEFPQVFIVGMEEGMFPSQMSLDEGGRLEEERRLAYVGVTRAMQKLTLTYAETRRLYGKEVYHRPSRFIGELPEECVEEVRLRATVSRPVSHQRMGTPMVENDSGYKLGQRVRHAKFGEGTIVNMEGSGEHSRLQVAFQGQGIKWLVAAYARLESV

Compound: CN1CCN(c2ccc3[nH]c(-c4ccc5[nH]c(-c6ccc(O)cc6)nc5c4)nc3c2)CC1 [H33258, bis-benzamide]
- relative amounts of the 1:1 H33258:DNA complex compared with the 2:1 H33258:DNA complex ([1]; 33 mM ammonium acetate): shifted
- change in binding (in words) [1, 5]: appreciable reduction in binding
- binding to single strand [2]: ligand bound to ss DNA was observed in increasing quantities

Compound: Cn1cc(NC(=O)c2cc(NC(=O)c3cc(NC=O)cn3C)cn2C)cc1C(=O)NCCC(=N)N [distamycin A]
- ammonium acetate concentration tolerated with binding/complex stable [1, 6]: up to 100 mM
- observation of ligand:DNA complex ([1]; 500 mM ammonium acetate in solution): still observed (though at much reduced levels)

Compound: CN(C)c1ccc(C(=C2C=CC(=[N+](C)C)C=C2)c2ccc([N+](C)(C)C)cc2)cc1.[Cl-].[Cl-] [methyl green]
- relative binding affinity to 6:7 duplex [1]: methyl green > ethidium bromide > proflavin
- reduction in binding to DNA [1, 5]: ~70%

Compound: O=C1c2c(O)ccc(O)c2C(=O)c2c(NCCNCCO)ccc(NCCNCCO)c21 [mitoxantrone]
- effect on helicase II ATP hydrolysis and unwinding activity [3]: inhibition of ATP hydrolysis and unwinding activity

Compound: Nc1ccc2cc3ccc(N)cc3nc2c1 [proflavin]
- ammonium acetate concentration tolerated with binding/complex stable [1, 6]: over 100 mM
- relative binding affinity to 6:7 duplex [1]: methyl green > ethidium bromide > proflavin
- binding between intercalator and duplex [4]: binding between intercalator and duplex was observed
